The values that follow come from patent US8148391B2 (Cephalon, Inc., priority 2006, dated 2012).

Test [1] addresses T1, baculovirus-expressed ALK (Homo sapiens, UniProt Q9UM73).
T1 construct: host or cells: baculovirus expression system
Description: ALK Kinase Assay (ELISA-type, time-resolved fluorescence). Format: biochemical. The following applies: 1 μM ATP (Km level), 30 ng/ml ALK, 37° C., 15 minutes; read-out: ALK Activity (ALK kinase inhibition, IC50 class). The essentials:
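Wells were coated with phospholipase C-γ at 10 μg/mL in Tris-buffered saline. Adding 30 ng/ml enzyme started the reaction, which ran at 37° C for 15 minutes before Eu-N1 PT66 antibody detection. Percent inhibition versus log10 concentration gave IC50 by variable-slope fit.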
A general note: An ELISA detects its analyte on a solid surface through an enzyme-linked reagent.

Test [2] has as its target T2, c-Met (cytoplasmic domain) (Homo sapiens, UniProt P08581).
T2 construct: 10 ng/mL c-Met (cytoplasmic domain, Invitrogen Corporation #PV3143); purchased Invitrogen Corporation PV3143
As to the kind of experiment: c-Met Kinase Assay (same methods as for ALK, with modifications). In kind it is biochemical. To be noted: 1 μM ATP (Km level), 10 ng/mL c-Met; read-out: cMet Activity (c-Met kinase inhibition, IC50 class). The method, boiled down: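 Steps: coat wells with PLC-γ (10 μg/mL, Tris-buffered saline); add 10 ng/mL c-Met cytoplasmic domain to initiate; incubate 15 min, 37° C; detect phosphoproduct via Eu-N1 PT66 antibody.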

T1 sequence (Q9UM73 19-1620): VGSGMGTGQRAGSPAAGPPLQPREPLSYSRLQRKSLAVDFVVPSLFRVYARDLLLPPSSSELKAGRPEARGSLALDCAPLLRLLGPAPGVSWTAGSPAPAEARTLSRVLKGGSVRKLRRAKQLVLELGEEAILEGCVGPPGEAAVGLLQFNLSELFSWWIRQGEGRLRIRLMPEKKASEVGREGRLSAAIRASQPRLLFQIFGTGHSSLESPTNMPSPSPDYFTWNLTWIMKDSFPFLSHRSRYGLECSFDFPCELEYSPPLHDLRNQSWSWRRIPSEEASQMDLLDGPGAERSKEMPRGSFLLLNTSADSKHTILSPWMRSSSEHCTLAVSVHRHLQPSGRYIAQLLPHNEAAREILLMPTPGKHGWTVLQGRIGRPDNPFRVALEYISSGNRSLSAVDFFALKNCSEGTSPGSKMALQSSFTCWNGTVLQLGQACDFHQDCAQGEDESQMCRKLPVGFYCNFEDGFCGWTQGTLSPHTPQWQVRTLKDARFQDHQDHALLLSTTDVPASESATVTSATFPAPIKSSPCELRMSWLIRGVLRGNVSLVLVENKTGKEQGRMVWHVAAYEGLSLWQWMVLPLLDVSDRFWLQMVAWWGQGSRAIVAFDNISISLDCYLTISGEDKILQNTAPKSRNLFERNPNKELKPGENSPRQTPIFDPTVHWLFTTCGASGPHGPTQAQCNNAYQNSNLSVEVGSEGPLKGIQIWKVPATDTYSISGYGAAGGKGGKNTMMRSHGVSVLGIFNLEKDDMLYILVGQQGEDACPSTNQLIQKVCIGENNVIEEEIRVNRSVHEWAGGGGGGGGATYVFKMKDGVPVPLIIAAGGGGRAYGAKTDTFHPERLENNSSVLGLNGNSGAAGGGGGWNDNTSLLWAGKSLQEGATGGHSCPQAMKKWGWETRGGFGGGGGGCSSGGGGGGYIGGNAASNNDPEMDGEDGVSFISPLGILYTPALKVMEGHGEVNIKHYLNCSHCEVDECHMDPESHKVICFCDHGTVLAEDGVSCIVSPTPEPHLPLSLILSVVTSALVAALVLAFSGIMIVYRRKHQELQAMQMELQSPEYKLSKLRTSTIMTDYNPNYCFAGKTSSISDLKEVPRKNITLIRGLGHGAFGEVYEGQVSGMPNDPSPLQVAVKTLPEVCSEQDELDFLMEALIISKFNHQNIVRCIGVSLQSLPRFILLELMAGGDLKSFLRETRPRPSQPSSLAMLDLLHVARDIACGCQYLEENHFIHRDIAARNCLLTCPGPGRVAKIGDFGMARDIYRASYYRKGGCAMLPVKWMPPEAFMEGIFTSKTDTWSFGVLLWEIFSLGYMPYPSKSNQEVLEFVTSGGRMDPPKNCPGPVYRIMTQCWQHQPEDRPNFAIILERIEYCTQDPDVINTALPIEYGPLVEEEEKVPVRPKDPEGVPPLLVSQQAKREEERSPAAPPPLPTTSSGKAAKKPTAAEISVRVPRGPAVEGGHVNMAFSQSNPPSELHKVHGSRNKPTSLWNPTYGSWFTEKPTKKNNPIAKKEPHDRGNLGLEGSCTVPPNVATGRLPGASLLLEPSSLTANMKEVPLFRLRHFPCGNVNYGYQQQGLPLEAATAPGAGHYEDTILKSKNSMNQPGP
T2 sequence (P08581 956-1390 limits assumed): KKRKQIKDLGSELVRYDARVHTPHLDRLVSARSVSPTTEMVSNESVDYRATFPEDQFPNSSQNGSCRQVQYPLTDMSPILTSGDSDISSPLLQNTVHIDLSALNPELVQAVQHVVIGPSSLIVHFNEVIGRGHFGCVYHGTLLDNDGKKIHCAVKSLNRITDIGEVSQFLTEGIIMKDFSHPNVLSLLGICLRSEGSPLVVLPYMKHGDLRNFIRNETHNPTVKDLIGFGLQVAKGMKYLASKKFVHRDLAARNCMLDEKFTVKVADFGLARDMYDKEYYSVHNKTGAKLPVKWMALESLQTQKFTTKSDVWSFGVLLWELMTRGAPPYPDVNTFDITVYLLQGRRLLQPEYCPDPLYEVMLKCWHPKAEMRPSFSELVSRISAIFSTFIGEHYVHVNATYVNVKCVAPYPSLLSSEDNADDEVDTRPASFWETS

A word on the IC50: it is the concentration that gives 50% inhibition. With `CC1(C)CCC(=O)Nc2ccc(Nc3ncc(Cl)c(Nc4ccc5[nH]c(C(F)(F)F)nc5c4)n3)cc21` [Example 1014, 7-[5-Chloro-4-(2-trifluoromethyl-1H-benzoimidazol-5-ylamino)-pyrimidin-2-ylamino]-5,5-dimethyl-1,3,4,5-tetrahydro-benzo[b]azepin-2-one], the IC50 in test [1] is under 0.1 µM; in test [2], over 10 µM.

As for `COCCN1CCc2ccc(Nc3ncc(Cl)c(Nc4ccc5[nH]c(C(F)(F)F)nc5c4)n3)cc2CC1` [Example 1015, 5-Chloro-N*2*-[3-(2-methoxy-ethyl)-2,3,4,5-tetrahydro-1H-benzo[d]azepin-7-yl]-N*4*-(2-trifluoromethyl-1H-benzoimidazol-5-yl)-pyrimidine-2,4-diamine], the IC50 in test [1] fell in the range of 0.1 to 1 µM; in test [2], 1 to 10 µM.

On to `CN1C(=O)CCCc2cc(Nc3ncc(Cl)c(Nc4ccc5[nH]c(C(F)(F)F)nc5c4)n3)ccc21` [Example 1016, 7-[5-Chloro-4-(2-trifluoromethyl-1H-benzoimidazol-5-ylamino)-pyrimidin-2-ylamino]-1-methyl-1,3,4,5-tetrahydro-benzo[b]azepin-2-one], for which the IC50 in test [1] lay in the range of 0.1 to 1 µM; in test [2], 1 to 10 µM.

Turning to `NC(=O)[C@@H]1[C@H](Nc2nc(Nc3ccc4c(c3)CCC(O)CC4)ncc2Cl)[C@H]2C=C[C@@H]1C2` (stereo partly drawn) [Example 1017, (1S,2S,3R,4R)-3-[5-Chloro-2-(7-hydroxy-6,7,8,9-tetrahydro-5H-benzocyclohepten-2-ylamino)-pyrimidin-4-ylamino]-bicyclo[2.2.1]hept-5-ene-2-carboxylic acid amide], the IC50 was under 0.1 µM in test [1] and 0.1 to 1 µM in test [2].

As for `COc1cccnc1-c1ccccc1Nc1nc(Nc2ccc3c(c2)CCC(N2CCOCC2)CC3)ncc1Cl` (stereo not drawn) [Example 1018, 5-Chloro-N*4*-[2-(3-methoxy-pyridin-2-yl)-phenyl]-N*2*-(7-morpholin-4-yl-6,7,8,9-tetrahydro-5H-benzocyclohepten-2-yl)-pyrimidine-2,4-diamine], the IC50 is under 0.1 µM in test [1] and 1 to 10 µM in test [2].

As for `COc1cccnc1-c1ccccc1Nc1nc(Nc2ccc3c(c2)CCC(O)CC3)ncc1Cl` (stereo not drawn) [Example 1019, 2-{5-Chloro-4-[2-(3-methoxy-pyridin-2-yl)-phenylamino]-pyrimidin-2-ylamino}-6,7,8,9-tetrahydro-5H-benzocyclohepten-7-ol], the IC50 in test [1] and in test [2] was 0.1 to 1 µM each time.

In the case of `Cc1cccnc1-c1ccccc1Nc1nc(Nc2ccc3c(c2)CCC(N2CCOCC2)CC3)ncc1Cl` (stereo not drawn) [Example 1020, 5-Chloro-N*4*-[2-(3-methyl-pyridin-2-yl)-phenyl]-N*2*-(7-morpholin-4-yl-6,7,8,9-tetrahydro-5H-benzocyclohepten-2-yl)-pyrimidine-2,4-diamine], the values for the half-inhibitory concentration (IC50) in test [1] and in test [2] were under 0.1 µM and 1 to 10 µM, respectively.

Regarding `Cc1cccnc1-c1ccccc1Nc1nc(Nc2ccc3c(c2)CCC(O)CC3)ncc1Cl` (stereo not drawn) [Example 1021, 2-{5-Chloro-4-[2-(3-methyl-pyridin-2-yl)-phenylamino]-pyrimidin-2-ylamino}-6,7,8,9-tetrahydro-5H-benzocyclohepten-7-ol], the figures for the IC50 in test [1] and in test [2] were 0.1 to 1 µM and 1 to 10 µM, respectively.

Turning to `CCCNC(=O)c1ccccc1Nc1nc(Nc2ccc3c(c2)C(C)(C)CCC(=O)N3)ncc1Cl` [Example 1022, 2-[5-Chloro-2-(5,5-dimethyl-2-oxo-2,3,4,5-tetrahydro-1H-benzo[b]azepin-7-ylamino)-pyrimidin-4-ylamino]-N-propyl-benzamide], the IC50 in test [1] was under 0.1 µM; in test [2], 0.1 to 1 µM.

Turning to `CCCNC(=O)c1ccccc1Nc1nc(Nc2ccc3c(c2)CCN(CCOC)CC3)ncc1Cl` [Example 1023, 2-{5-Chloro-2-[3-(2-methoxy-ethyl)-2,3,4,5-tetrahydro-1H-benzo[d]azepin-7-ylamino]-pyrimidin-4-ylamino}-N-propyl-benzamide], the IC50 in test [1] was under 0.1 µM; in test [2] it was 0.1 to 1 µM.

As for `CCCNC(=O)c1ccccc1Nc1nc(Nc2ccc3c(c2)CCCC(=O)N3)ncc1Cl` [Example 1024, 2-[5-Chloro-2-(2-oxo-2,3,4,5-tetrahydro-1H-benzo[b]azepin-7-ylamino)-pyrimidin-4-ylamino]-N-propyl-benzamide], the IC50 in test [1] and in test [2] was under 0.1 µM in each case.

Take `CCCNC(=O)c1ccccc1Nc1nc(Nc2cc3c(cc2OC)CCN(CCOC)CC3)ncc1Cl` [Example 1026, 2-{5-Chloro-2-[8-methoxy-3-(2-methoxy-ethyl)-2,3,4,5-tetrahydro-1H-benzo[d]azepin-7-ylamino]-pyrimidin-4-ylamino}-N-propyl-benzamide]: the IC50 is under 0.1 µM in test [1] and over 10 µM in test [2].

With `CCCCNC(=O)c1ccccc1Nc1nc(Nc2ccc3c(c2)C(C)(C)CCC(=O)N3)ncc1Cl` [Example 1027, N-Butyl-2-[5-chloro-2-(5,5-dimethyl-2-oxo-2,3,4,5-tetrahydro-1H-benzo[b]azepin-7-ylamino)-pyrimidin-4-ylamino]-benzamide], the IC50 in test [1] was under 0.1 µM; in test [2], 1 to 10 µM.

For `CCCCNC(=O)c1ccccc1Nc1nc(Nc2ccc3c(c2)CCN(CCOC)CC3)ncc1Cl` [Example 1028, N-Butyl-2-{5-chloro-2-[3-(2-methoxy-ethyl)-2,3,4,5-tetrahydro-1H-benzo[d]azepin-7-ylamino]-pyrimidin-4-ylamino}-benzamide], the IC50 in test [1] was under 0.1 µM; in test [2], 0.1 to 1 µM.

For the compound `CCCCNC(=O)c1ccccc1Nc1nc(Nc2ccc3c(c2)CCCC(=O)N3)ncc1Cl` [Example 1029, N-Butyl-2-[5-chloro-2-(2-oxo-2,3,4,5-tetrahydro-1H-benzo[b]azepin-7-ylamino)-pyrimidin-4-ylamino]-benzamide], the figures for the 50% inhibitory concentration (IC50) in test [1] and in test [2] were 0.1 to 1 µM and 1 to 10 µM, respectively.

`CCCCNC(=O)c1ccccc1Nc1nc(Nc2cc3c(cc2OC)CCN(CCOC)CC3)ncc1Cl` [Example 1031, N-Butyl-2-{5-chloro-2-[8-methoxy-3-(2-methoxy-ethyl)-2,3,4,5-tetrahydro-1H-benzo[d]azepin-7-ylamino]-pyrimidin-4-ylamino}-benzamide]: the figures for the IC50 in test [1] and in test [2] were under 0.1 µM and over 10 µM, respectively.

For `CN(C)S(=O)(=O)c1ccccc1Nc1nc(Nc2ccc3c(c2)CCC(N2CCOCC2)CC3)ncc1Cl` (stereo not drawn) [Example 1032, 2-[5-Chloro-2-(7-morpholin-4-yl-6,7,8,9-tetrahydro-5H-benzocyclohepten-2-ylamino)-pyrimidin-4-ylamino]-N,N-dimethyl-benzenesulfonamide], the IC50 in test [1] is under 0.1 µM; in test [2], 0.1 to 1 µM.

On to `CN(C)S(=O)(=O)c1ccccc1Nc1nc(Nc2ccc3c(c2)CCC(O)CC3)ncc1Cl` (stereo not drawn) [Example 1033, 2-[5-Chloro-2-(7-hydroxy-6,7,8,9-tetrahydro-5H-benzocyclohepten-2-ylamino)-pyrimidin-4-ylamino]-N,N-dimethyl-benzenesulfonamide], for which the values for the IC50 in test [1] and in test [2] were under 0.1 µM and 0.1 to 1 µM, respectively.

`Clc1cnc(Nc2ccc3c(c2)CCC(N2CCOCC2)CC3)nc1Nc1ccccc1-n1cccn1` (stereo not drawn) [Example 1034, 5-Chloro-N*2*-(7-morpholin-4-yl-6,7,8,9-tetrahydro-5H-benzocyclohepten-2-yl)-N*4*-(2-pyrazol-1-yl-phenyl)-pyrimidine-2,4-diamine]: the results for the IC50 in test [1] and in test [2] were under 0.1 µM and 0.1 to 1 µM, respectively.

For `OC1CCc2ccc(Nc3ncc(Cl)c(Nc4ccccc4-n4cccn4)n3)cc2CC1` (stereo not drawn) [Example 1035, 2-[5-Chloro-4-(2-pyrazol-1-yl-phenylamino)-pyrimidin-2-ylamino]-6,7,8,9-tetrahydro-5H-benzocyclohepten-7-ol], the results for the IC50 in test [1] and in test [2] were under 0.1 µM and 0.1 to 1 µM, respectively.

`CC(C)S(=O)(=O)c1ccccc1Nc1nc(Nc2ccc3c(c2)CCC(N2CCOCC2)CC3)ncc1Cl` (stereo not drawn) [Example 1036, 5-Chloro-N*2*-(7-morpholin-4-yl-6,7,8,9-tetrahydro-5H-benzocyclohepten-2-yl)-N*4*-[2-(propane-2-sulfonyl)-phenyl]-pyrimidine-2,4-diamine]: the IC50 in test [1] is under 0.1 µM; in test [2] it was 0.1 to 1 µM.

In the case of `CC(C)S(=O)(=O)c1ccccc1Nc1nc(Nc2ccc3c(c2)CCC(O)CC3)ncc1Cl` (stereo not drawn) [Example 1037, 2-{5-Chloro-4-[2-(propane-2-sulfonyl)-phenylamino]-pyrimidin-2-ylamino}-6,7,8,9-tetrahydro-5H-benzocyclohepten-7-ol], the IC50 is under 0.1 µM in test [1] and 0.1 to 1 µM in test [2].

Regarding `Cc1cccc(C(=O)NCC#N)c1Nc1nc(Nc2ccc3c(c2)C(C)(C)CCC(=O)N3)ncc1Cl` [Example 1038, 2-[5-Chloro-2-(5,5-dimethyl-2-oxo-2,3,4,5-tetrahydro-1H-benzo[b]azepin-7-ylamino)-pyrimidin-4-ylamino]-N-cyanomethyl-3-methyl-benzamide], the values for the IC50 in test [1] and in test [2] were under 0.1 µM and 0.1 to 1 µM, respectively.

On to `Cc1cccc(C(=O)NCC#N)c1Nc1nc(Nc2ccc3c(c2)CCCC(=O)N3C)ncc1Cl` [Example 1039, 2-[5-Chloro-2-(1-methyl-2-oxo-2,3,4,5-tetrahydro-1H-benzo[b]azepin-7-ylamino)-pyrimidin-4-ylamino]-N-cyanomethyl-3-methyl-benzamide], for which the IC50 in test [1] lay in the range of 1 to 10 µM; in test [2], 0.1 to 1 µM.
